Data taken from patent US7855188B2, “Quarternized amino glucosamine compound for exerting anticancer effect” (Pukyong National University Industry-Academic Cooperation …, priority 2006, dated 2010).

Tests used:
phospho p53 protein = experiment: Western blot analysis of phospho p53; type: cell-based, mouse; settings: B16F1 cells; different time intervals
Experimental: After treatment of QAGlc for different time intervals, cells were lysed in RIPA buffer [10 mmol Tris-HCL (pH 7.4), 1% deoxycholate, 1% NP40, 150 mmol NaCl, 0.1% SDS, 0.2 mmol phenylmethyl sulfonyl fluoride, 1 mg/L aprotinin and 1 mg/L leupeptin] for 30 min on ice. The lysates were centrifuged at 12,000×g for 15 min to remove debris. Protein samples were resolved using a […] Novex gradient gel (Invitrogen, USA), electrotransferred onto a nitrocellulose membrane, and blocked with 10% skim milk. Monoclonal antibodies of phosphorylated p-53 (Cat. No, Chemicon, CA, USA) were used to detect phosphor-p53 protein using chemiluminescent ECL assay kit (Amersham Pharmacia Biosciences, NJ, USA) according to the manufacturer's instructions. Western blot bands were quantified using ImageMaster software (Amersham Pharmacia Biosciences, NJ, USA). The result was represented in FIG. 8.

p21 gene = experiment: p21-Luc gene reporter assay; type: cell-based, mouse; settings: B16F1 cells; all concentrations; compared to the control
Experimental: (§1) B16F1 cells were transfected with p53-luc, p21-Luc reporter vectors and β-galactosidase expression vector by lipofectamine (Invitrogen) transfection method. After 24 h of transfection, cells were subcultured into 24 well plates and cells treated with different concentrations of QAGlc. The luciferase activity value was normalized to transfection efficiency monitored by the cotransfected β-galactosidase expression vector. The level of induction of luciferase was determined as a ratio in comparison to cells with no stimulation. The result was represented in FIG. 6.
According to the method described above, p21 gene was transfected to B16F1 cells according to the method described above and gene expression after the treatment of QAGlc was determined by relative luciferase activity. The result was represented in FIG. 7.

B16F1 cells [1] = experiment: FACS analysis of apoptotic cells; type: cell-based, mouse
B16F1 cells [2] = experiment: Detection of apoptosis by DNA fragmentation assay; type: cell-based, mouse
Experimental: In order to examine anticancer effect and mechanism of QAGlc, B16F1 cells cultured in 10 cm culture dishes were pre-treated with different concentrations of QAGlc and apoptosis was induced with 2 mM H2O2. Then, cell incubation was performed for different time periods. Cell was rinsed and total DNA was extracted with the standard procedure. DNA was electrophoresed on a 2% agarose gel and DNA fraction was visualized using ethedium bromide staining. The result was represented in FIG. 3.
B16F1 cells cultured in 10 cm culture dishes were pretreated with different concentrations of QAGlc and apoptosis was induced with 2 mM H2O2. After incubating for 48 h, genomic DNA was extracted and electrophoresed on a 2% agarose gel. The result was represented in FIG. 4.

[3] = system: colon cancer cell (SW480), lung cancer cell (A549), mouse melanoma cell (B16F1), leukemia cancer cell (HL60) and liver cancer cell (Hep3B); experiment: MTT cell viability assay on various cancer cells; type: cell-based; settings: after 36 h of treatment; effect concentration dependent; serum free media
Experimental: (§2) In order to assay the cell cytotoxicity of glucosamine and quaternized amino glucosamine on colon cancer cell (SW480), lung cancer cell (A549), mouse melanoma cell (B16F1), leukemia cancer cell (HL60) and liver cancer cell (Hep3B), MTT assay was performed with different sample concentrations and incubation time intervals.
(§3) Cells were cultured in microtiter 96-well plates with serum free media and treated with different sample concentrations for varying time intervals and anticancer effect was assessed using MTT cell viability assay. The result was represented in FIG. 2. […] Moreover, the effect was concentration dependent.

p53 = experiment: RT-PCR of p53 mRNA; type: cell-based, mouse; settings: B16F1 cells
Experimental: (§4) B16F1 cells were treated with QAGlc and total RNA was extracted. PCR was carried out using RT-generated cDNA encoding p53, p21 and GSPDH with their specific primers to amplify p53 and G3PDH mRNA. PCR products were analyzed on a 2% agarose gel. The mRNA of G3PDH served as an internal control for sample loading and mRNA integrity. The result was represented in FIG. 5.

p21 = experiment: RT-PCR of p21 mRNA; type: cell-based, mouse; settings: B16F1 cells; time dependant
Experimental: as §4

p53 gene = experiment: p53-luc gene reporter assay; type: cell-based, mouse; settings: B16F1 cells
Experimental: as §1

B16F1 cells [4] = experiment: MTT cytotoxicity assay in B16F1 cells; type: cell-based, mouse; settings: after 48 h of incubation, concentrations below 0.01%
Experimental: as §2, §3
B16F1 cells were treated with different concentrations of quaternized amino glucosamine and cytotoxicity was determined using MTT assay. […] This effect could be confirmed when the B16F1 cells were transfected with promoter plasmids of p53 and p21 treated with different concentrations of QAGlc. Induction of phosphor p53 observed in western blot analysis further confirmed that quaternized amino glucosamine induce apoptosis via p53 dependant pathway.

[5] = after 24 h and 36 h of incubation

With `C[N+](C)(C)CC(O)CNC1[C@H](O)OC(CO)[C@@H](O)[C@H]1O` (stereo partly drawn) [QAGlc, quaternized amino glucosamine] the “phospho p53 protein level” value (phospho p53 protein) was “increase phospho p53 protein level in a time dependant manner”, the “p21 gene expression (relative luciferase activity)” value (p21 gene) was “significantly enhanced” and the “production of apoptotic cells” value (B16F1 cells [1]) was “increase the production of apoptotic cells”. For the same molecule, the “incubation time after which DNA damage was first observed” value (B16F1 cells [2]; 100 μg/ml, apoptosis induced with 2 mM H2O2) was 36 h, the “DNA damage (DNA fragmentation)” value (B16F1 cells [2]; 48 h incubation, 100 μg/ml) was “higher DNA damage” and the “DNA damage (DNA fragmentation)” value (B16F1 cells [2]; 48 h incubation, different concentrations, 2 mM H2O2) was “higher DNA damage dose-dependently”. For the same molecule, the “DNA damage (DNA fragmentation)” value (B16F1 cells [2]; prolonged incubation (after 36 h), all tested concentrations) was “clear effect DNA damage by all the tested concentrations dose-dependently”, the “anticancer effect (cell cytotoxicity, MTT)” value [3] was “clear anticancer effect” and the p53 transcription (p53; [5]) was “up-regulated”. For the same molecule, the “p53 transcription compared with etoposide” value (p53; [5]) was “much higher than that of etoposide”, the “induction of p53 gene (RT-PCR products)” value (p53; time dependant) was “induction of p53 and p21 genes in time dependant manner” and the “induction of p21 gene (RT-PCR products)” value (p21) was “induction of p53 and p21 genes in time dependant manner”. The “p53 gene expression effect relative to etaposide” value (p53 gene; 100 μg/ml) was 2 fold, the “p53 gene expression (luciferase reporter)” value (p53 gene; different concentrations) was “up-regulated dose dependently” and the “anticancer effect (cytotoxicity, MTT)” value (B16F1 cells [4]) was “clear anticancer effect was observed”.
